Calls of active or inactive are those of the source. No cut-off for these calls is given here.
Legend:
THP-1 [1] = test: Antiproliferative activity against human THP-1 cells assessed as inhibition of cell growth incubated for 72 hrs by MTT assay; format: functional, cell-based; settings: THP-1, 72 h
U-937 = test: Antiproliferative activity against human U-937 cells assessed as inhibition of cell growth incubated for 72 hrs by MTT assay; format: functional, cell-based; settings: U-937, 72 h
SK-OV-3 [2] = test: Antiproliferative activity against human SK-OV-3 cells assessed as inhibition of cell growth incubated for 72 hrs by MTT assay; format: functional, cell-based; settings: SK-OV-3, 72 h
[3] = Antiproliferative activity against human SK-OV-3/Taxol cells assessed as inhibition of cell growth incubated for 72 hrs by MTT assay; format: functional, cell-based; settings: SK-OV-3, 72 h
THP-1 [4] = test: Induction of apoptosis in human THP-1 cells assessed as viable cells at 0.5 uM incubated for 48 hrs by Annexin V-FITC/PI staining based flow cytometry (reference value: 96.33 %); format: functional; settings: read-out: Activity
THP-1 [5] = test: Induction of apoptosis in human THP-1 cells assessed as early apoptotic cells at 0.5 uM incubated for 48 hrs by Annexin V-FITC/PI staining based flow cytometry (reference value: 0.45 %); format: functional
THP-1 [6] = test: Induction of apoptosis in human THP-1 cells assessed as late apoptotic cells at 0.5 uM incubated for 48 hrs by Annexin V-FITC/PI staining based flow cytometry (reference value: 0.74 %); format: functional
THP-1 [7] = test: Induction of apoptosis in human THP-1 cells assessed as necrotic cells at 0.5 uM incubated for 48 hrs by Annexin V-FITC/PI staining based flow cytometry (reference value: 2.48 %); format: functional
THP-1 [8] = test: Induction of apoptosis in human THP-1 cells assessed as viable cells at 1 uM incubated for 48 hrs by Annexin V-FITC/PI staining based flow cytometry (reference value: 96.33 %); format: functional; settings: read-out: Activity
THP-1 [9] = test: Induction of apoptosis in human THP-1 cells assessed as early apoptotic cells at 1 uM incubated for 48 hrs by Annexin V-FITC/PI staining based flow cytometry (reference value: 0.45 %); format: functional
THP-1 [10] = test: Induction of apoptosis in human THP-1 cells assessed as late apoptotic cells at 1 uM incubated for 48 hrs by Annexin V-FITC/PI staining based flow cytometry (reference value: 0.74 %); format: functional
THP-1 [11] = test: Induction of apoptosis in human THP-1 cells assessed as necrotic cells at 1 uM incubated for 48 hrs by Annexin V-FITC/PI staining based flow cytometry (reference value: 2.48 %); format: functional
THP-1 [12] = test: Induction of apoptosis in human THP-1 cells assessed as viable cells at 2.5 uM incubated for 48 hrs by Annexin V-FITC/PI staining based flow cytometry (reference value: 96.33 %); format: functional; settings: read-out: Activity
THP-1 [13] = test: Induction of apoptosis in human THP-1 cells assessed as late apoptotic cells at 2.5 uM incubated for 48 hrs by Annexin V-FITC/PI staining based flow cytometry (reference value: 0.74 %); format: functional
THP-1 [14] = test: Induction of apoptosis in human THP-1 cells assessed as necrotic cells at 2.5 uM incubated for 48 hrs by Annexin V-FITC/PI staining based flow cytometry (reference value: 2.48 %); format: functional
SK-OV-3 [15] = test: Induction of apoptosis in human SK-OV-3 cells assessed as early apoptotic cells at 1 uM incubated for 48 hrs by Annexin V-FITC/PI staining based flow cytometry (reference value: 0.08 %); format: functional
SK-OV-3 [16] = test: Induction of apoptosis in human SK-OV-3 cells assessed as late apoptotic cells at 1 uM incubated for 48 hrs by Annexin V-FITC/PI staining based flow cytometry (reference value: 4.51 %); format: functional
SK-OV-3 [17] = test: Induction of apoptosis in human SK-OV-3 cells assessed as necrotic cells at 1 uM incubated for 48 hrs by Annexin V-FITC/PI staining based flow cytometry (reference value: 4.45 %); format: functional
SK-OV-3 [18] = test: Induction of apoptosis in human SK-OV-3 cells assessed as viable cells at 2.5 uM incubated for 48 hrs by Annexin V-FITC/PI staining based flow cytometry (reference value: 90.97 %); format: functional; settings: read-out: Activity
SK-OV-3 [19] = test: Induction of apoptosis in human SK-OV-3 cells assessed as early apoptotic cells at 2.5 uM incubated for 48 hrs by Annexin V-FITC/PI staining based flow cytometry (reference value: 0.08 %); format: functional
SK-OV-3 [20] = test: Induction of apoptosis in human SK-OV-3 cells assessed as necrotic cells at 2.5 uM incubated for 48 hrs by Annexin V-FITC/PI staining based flow cytometry (reference value: 4.45 %); format: functional
SK-OV-3 [21] = test: Induction of apoptosis in human SK-OV-3 cells assessed as viable cells at 5 uM incubated for 48 hrs by Annexin V-FITC/PI staining based flow cytometry (reference value: 90.97 %); format: functional; settings: read-out: Activity
SK-OV-3 [22] = test: Induction of apoptosis in human SK-OV-3 cells assessed as early apoptotic cells at 5 uM incubated for 48 hrs by Annexin V-FITC/PI staining based flow cytometry (reference value: 0.08 %); format: functional
SK-OV-3 [23] = test: Induction of apoptosis in human SK-OV-3 cells assessed as late apoptotic cells at 5 uM incubated for 48 hrs by Annexin V-FITC/PI staining based flow cytometry (reference value: 4.51 %); format: functional
THP-1 [24] = test: Induction of apoptosis in human THP-1 cells assessed as change in mitochondrial membrane potential at 0.5 uM incubated for 48 hrs by JC-1 staining based flow cytometry (reference value: 5.15 %); format: functional
THP-1 [25] = test: Induction of apoptosis in human THP-1 cells assessed as change in mitochondrial membrane potential at 1 uM incubated for 48 hrs by JC-1 staining based flow cytometry (reference value: 5.15 %); format: functional
THP-1 [26] = test: Induction of apoptosis in human THP-1 cells assessed as change in mitochondrial membrane potential at 2.5 uM incubated for 48 hrs by JC-1 staining based flow cytometry (reference value: 5.15 %); format: functional
SK-OV-3 [27] = test: Induction of apoptosis in human SK-OV-3 cells assessed as change in mitochondrial membrane potential at 1 uM incubated for 48 hrs by JC-1 staining based flow cytometry (reference value: 5.34 %); format: functional
SK-OV-3 [28] = test: Induction of apoptosis in human SK-OV-3 cells assessed as change in mitochondrial membrane potential at 2.5 uM incubated for 48 hrs by JC-1 staining based flow cytometry (reference value: 5.34 %); format: functional
SK-OV-3 [29] = test: Induction of apoptosis in human SK-OV-3 cells assessed as change in mitochondrial membrane potential at 5 uM incubated for 48 hrs by JC-1 staining based flow cytometry (reference value: 5.34 %); format: functional
KG-1 = test: Downregulation of XIAP expression in human KG-1 cells incubated for 48 hrs by Western blot analysis; format: functional, cell-based; settings: dose 0.5-2.5 µM
SK-OV-3 [30] = test: Downregulation of XIAP expression in human SK-OV-3 cells incubated for 48 hrs by Western blot analysis; format: functional, cell-based
[31] = biological target: Signal transducer and activator of transcription 3 (Homo sapiens) (UniProt P40763); test: Inhibition of STAT3 phosphorylation in human KG-1 cells at 0.5 to 2.5 uM incubated for 48 hrs by Western blot analysis; format: cell-based; settings: dose 0.5-2.5 µM
[32] = biological target: Signal transducer and activator of transcription 3 (Homo sapiens) (UniProt P40763); test: Inhibition of STAT3 phosphorylation in human THP-1 cells at 0.5 to 2.5 uM incubated for 48 hrs by Western blot analysis; format: cell-based; settings: dose 0.5-2.5 µM

Signal transducer and activator of transcription 3 (Homo sapiens), sequence (P40763 whole entry): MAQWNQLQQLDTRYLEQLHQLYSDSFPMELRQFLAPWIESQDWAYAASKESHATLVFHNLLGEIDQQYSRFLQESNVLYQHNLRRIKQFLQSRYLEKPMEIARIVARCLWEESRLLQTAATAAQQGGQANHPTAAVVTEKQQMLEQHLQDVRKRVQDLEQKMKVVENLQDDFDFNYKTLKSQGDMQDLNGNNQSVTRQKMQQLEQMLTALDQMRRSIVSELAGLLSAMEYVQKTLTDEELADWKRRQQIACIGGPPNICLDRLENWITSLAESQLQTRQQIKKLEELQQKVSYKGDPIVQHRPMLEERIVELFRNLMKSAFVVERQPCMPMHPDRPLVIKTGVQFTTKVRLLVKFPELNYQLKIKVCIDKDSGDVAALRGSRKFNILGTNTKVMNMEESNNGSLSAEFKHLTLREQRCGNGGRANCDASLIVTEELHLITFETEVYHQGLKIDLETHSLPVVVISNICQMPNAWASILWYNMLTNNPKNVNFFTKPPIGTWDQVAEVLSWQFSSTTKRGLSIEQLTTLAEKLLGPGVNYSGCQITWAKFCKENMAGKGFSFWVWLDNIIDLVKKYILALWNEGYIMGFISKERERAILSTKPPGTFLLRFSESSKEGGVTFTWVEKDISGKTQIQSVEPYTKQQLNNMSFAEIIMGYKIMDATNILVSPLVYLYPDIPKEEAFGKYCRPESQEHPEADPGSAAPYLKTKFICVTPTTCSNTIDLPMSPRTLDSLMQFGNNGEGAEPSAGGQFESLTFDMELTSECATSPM

Compound	IC50 (THP-1 [1]) [µM]	IC50 (U-937) [µM]	IC50 (SK-OV-3 [2]) [µM]	IC50 [3] [µM]	viability at 0.5 µM (THP-1 [4]) [%]	Activity (THP-1 [5]) [%]	Activity (THP-1 [6]) [%]	Activity (THP-1 [7]) [%]	viability at 1 µM (THP-1 [8]) [%]	Activity (THP-1 [9]) [%]	Activity (THP-1 [10]) [%]	Activity (THP-1 [11]) [%]	viability at 2.5 µM (THP-1 [12]) [%]	Activity (THP-1 [13]) [%]	Activity (THP-1 [14]) [%]	Activity (SK-OV-3 [15]) [%]	Activity (SK-OV-3 [16]) [%]	Activity (SK-OV-3 [17]) [%]	viability at 2.5 µM (SK-OV-3 [18]) [%]	Activity (SK-OV-3 [19]) [%]	other results
CCc1nccnc1C(=O)/C=C/c1ccccn1	0.6	0.69	1.31	1.24	93.5	2.51	1.53	2.41	91.6	4.75	1.73	1.94	81.9	3.26	1.77	0.37	19.41	8.98	67	0.41	Activity (SK-OV-3 [20]): 9.16%; viability at 5 µM (SK-OV-3 [21]): 44.6%; Activity (SK-OV-3 [22]): 1.46%; Activity (SK-OV-3 [23]): 45.06%; Activity (THP-1 [24]): 6.52%; Activity (THP-1 [25]): 9.01%; Activity (THP-1 [26]): 26.66%; Activity (SK-OV-3 [27]): 11.51%; Activity (SK-OV-3 [28]): 17.88%; Activity (SK-OV-3 [29]): 31.28%; Activity (KG-1): Dose-dependent-effect; Activity (SK-OV-3 [30]): Dose-dependent-effect; inhibition [31]: Active; inhibition [32]: Active
Cc1nccnc1C(=O)/C=C/c1cccc(C#N)c1	1.52	1.73	1.39	1.42	93.3	3.41	1.46	1.78	92.7	3.12	1.94	2.24	77.8	4.82	2.27	1.09	21.04	5.49	63.3	0.77	Activity (SK-OV-3 [20]): 9.29%; viability at 5 µM (SK-OV-3 [21]): 22.5%; Activity (SK-OV-3 [22]): 2.19%; Activity (SK-OV-3 [23]): 65.66%; Activity (THP-1 [24]): 6.42%; Activity (THP-1 [25]): 7.94%; Activity (THP-1 [26]): 29.42%; Activity (SK-OV-3 [27]): 13.1%; Activity (SK-OV-3 [28]): 18.87%; Activity (SK-OV-3 [29]): 53.8%; Activity (KG-1): Dose-dependent-effect; Activity (SK-OV-3 [30]): Dose-dependent-effect; inhibition [31]: Active; inhibition [32]: Active

From ChEMBL document CHEMBL6114992, “Design, synthesis, biological evaluation, and mechanism of action of new pyrazines as anticancer agents in vitro and in vivo” (Bioorg Med Chem, 2025)
